Measurements from patent publication US11331294B2, “Benzoquinone derivative E3330 in combination with chemotherapeutic agents for the treatment of bladder cancer” (Indiana University Research and Technology Corporation, priority 2007, dated 2022).

What was measured:
sensory neurons = assay: Ex vivo model of sensory neurons in culture (neurotoxicity); type: cell-based
[1] = tested on: RP-B-01, RP-B-02 and T24 cell lines; assay: Alamar blue combination study with cisplatin; type: cell-based, human; conditions: combined with increasing concentrations of cisplatin, 72 h
Experimental: FIGS. 30A-30C. […] RP-B-01, RP-B-02, and T24 cell lines were treated with increasing concentrations of cisplatin in combination with a single dose of either APX2009 or APX2014 as indicated (n=3±SE). Cell proliferation was normalized to Saline control and expressed as Fold Change. Combination index (CI) values calculated with Compusyn for combination of APX inhibitors and cisplatin. CI values indicated mainly additivity (0.95-1.2) to synergy (0.8-0.94).
Bladder cancer cell lines (BLCAb001 (RP-B-01) and BLCAb002 (RP-B-02) maintained in RPMI growth medium with 10% FBS were plated at 4,000 cells/well in poly-D-lysine treated 96-well clear bottom black plates and grown overnight in 5% CO2 at 37° C. Cells in monolayer were then treated with increasing concentrations of redox-specific inhibitor APX3330, APX2014 or APX2009 and serially diluted 1:2 in a 5-point dose scheme. For combination studies, cells were treated with both cisplatin and APX compounds to determine efficacy. After 72 hours, fresh RPMI medium with 5% FBS was exchanged, and a fluorescent metabolic indicator, Alamar Blue was added to each well at 10% final concentration. After a 4 hour incubation, plates were read on a Synergy H4 (Bio-Tek) plate reader. […]
APE1/Ref-1 inhibition enhances cisplatin's therapeutic effect. […] Cell proliferation was assessed using Alamar blue 72 h after drug treatment.

[2] = tested on: VEGF release from Hey-C2, SKOV-3X, Panc1, PaCa-2 and Igrov cells; assay: VEGF ELISA on cancer cell supernatants; type: cell-based, human; conditions: normoxia and hypoxia, about 24 hrs
Experimental: Inhibition of VEGF release. VEGF enzyme-linked immunosorbent assay (ELISA). Various cancer cell lines were plated in a 24-well plate and treated in duplicates with for about 24 hrs in normoxic (about 21% oxygen) or hypoxic (about 2% oxygen) condition. The supernatants of cells were collected and subjected to an ELISA assay with a kit specific for human VEGF according to the manufacturer (R&D Systems, Minneapolis, Minn.) VEGF ELISA assay results were read in a 96-well format plate reader by measuring absorbance at 450 nm with correction at 540 nm. Hypoxia induced an increase in VEGF release (FIG. 2). (For FIGS. 2-7, black bars=normoxia; gray bars=hypoxia.)
VEGF ELISA Assays. Hey-C2 (ovarian cancer), SKOV-3X (ovarian cancer), Pancl (pancreatic cancer), PaCa-2 (pancreatic cancer), and Igrov (ovarian cancer) cells were plated in a 24-well plate and treated in duplicates with (RN3-3 e) at different concentrations for about 24 hrs in normoxic (about 21% oxygen) or hypoxic (about 2% oxygen) condition. The supernatants of cells were collected and subjected to an ELISA assay with a kit specific for human VEGF according to the manufacturer (R&D Systems, Minneapolis, Minn.). VEGF ELISA assay results were read in a 96-well format plate reader by measuring absorbance at 450 nm with correction at 540 nm.

pancreatic tumor cells = assay: Annexin V/PI apoptosis assay in pancreatic tumor cells; type: cell-based
Experimental: APX3330 in combination with chemotherapeutic Gemcitabine. […] To analyze the cells for apoptosis, cells were plated and allowed to attach overnight. Cells were treated with APX3330 alone or with gemcitabine. Apoptosis was assayed about 24 and 48 hr following treatment. Cells were trypsinized, pelleted, washed in ice-cold PBS, and resuspended in 1× binding buffer [about 10 mmol/L HEPES/NaOH (pH 7.4), 140 mmol/L NaCl, 2.5 mmol/L CaCl2]. Apoptosis was analyzed using the Alexa Fluor 488 AnnexinV from Vybrant Apoptosis Assay kit in combination with propidium iodide (Molecular Probes, Eugene, Oreg.) as described previously Clinical Cancer Research 13, 260-267, Jan. 1, 2007. Cells that were strongly Annexin positive were considered positive for apoptosis. The samples were analyzed by flow cytometry in the Indiana University Cancer Center flow cytometry facility.
APX3330 in combination with Methoxyamine-pancreatic cells. […] To analyze the cells for apoptosis, cells were plated and allowed to attach overnight. […] Apoptosis was analyzed using the Alexa Fluor 488 Annexin V from Vybrant Apoptosis Assay kit in combination with propidium iodide (Molecular Probes, Eugene, Oreg.) as described previously Clinical Cancer Research 13, 260-267, Jan. […] The samples were analyzed by flow cytometry in the Indiana University Cancer Center flow cytometry facility.

SF767 glioma cells = assay: Glioma cell migration (scratch) assay; type: cell-based; conditions: 100 μM, 48 h
Experimental: Glioma Cell Migration Assay. APX3330 was tested to determine if it would inhibit the migration ability of SF767 glioma cells. In order to do this, we plated 1.5×10^6 SF767 cells in a 60 mm tissue culture dish and allowed them to attach overnight and form a confluent monolayer. A scratch or wound was made across the plate using a 200 μL pipette tip as described previously (Liang 2007). The cells were then rinsed to remove floating cells and media contain 25, 50, 75 or 100 μM APX3330 or the appropriate vehicle control, DMSO. The drug-containing media was removed after 24 h and fresh media was added Images were taken at three marked places along the scratch at 0, 24, 36 and 48 h after the drug was added. Migration was quantified in ten uniform places for each image taken using Spot Software (Diagnostic Instruments, Sterling Heights, Mich.) to measure the distance in microns between the leading edges of the scratch. Each set of data, a total of thirty for each data point, was normalized to the migration of the vehicle control at 0 h and used to determine standard deviation.

| Compound | neuroprotection against platinum-induced toxicity (sensory neurons) | cellular proliferation when combined with cisplatin [1] | VEGF release [2] | apoptosis in combination with methoxyamine (pancreatic tumor cells; about 24 and 96 hr) | apoptosis in combination with gemcitabine (pancreatic tumor cells; gemcitabine about 0.25 μM, 24 and 48 hr) | inhibition of migration compared to vehicle control (SF767 glioma cells) [fold] |
| --- | --- | --- | --- | --- | --- | --- |
| CCC/C(=C\C1=C(OC)C(=O)c2ccccc2C1=O)C(=O)N(CC)CC [APX2009, [(2E)-2-[(3-methoxy-1,4-dioxo-1,4-dihydronaphthalen-2-yl)methylidene]-N,N-diethylpentanamide]] | neuroprotective against cisplatin and oxaliplatin-induced toxicity of sensory neurons | further reduction in cellular proliferation |  |  |  |  |
| CCCCCCCCC/C(=C\C1=C(C)C(=O)C(OC)=C(OC)C1=O)C(=O)O [APX3330] |  |  | reduced the amount of VEGF release | enhanced the apoptosis inducing effects of methoxyamine | enhanced the apoptosis inducing effects of gemcitabine | 4.0 |
